The target in assay [1] is human D2 receptor (short isoform) (Homo sapiens, UniProt P14416). Put plainly: D2 receptor displacement binding assay (3H-spiperone, membrane homogenate of stably transfected GH4 C1 cells), used for D2/D4 selectivity. To be noted: ratio D2/D4, 3H-spiperone displacement. As to the method: (§1) The potency of the test compound to reduce ^3 H-spiperone binding directly correlated to its binding affinity for the receptor.
GH4 C1 (rat pituitary) cells stably transfected with the human D2 receptor (short isoform) were grown in HAM'S F10 media in NUNC cell factories for 5 days. 100 μM ZnSO4 was added to the cells (the D2 promoter being zinc inducible). After 16 hours, fresh media was added to allow the cells to recover for 24 hours. The cells were harvested using versine and then centrifuged in a Sorval centrifuge for 10 minutes, at 5000 rpm (GS3 rotor). Pellets were quickly frozen in liquid nitrogen and stored at -80° C. until used in the binding assays. When used in the assay, cells were thawed on ice for 20 minutes. […] The receptor protein concentration was determined using the Pierce BCA assay.
(§2) Total Spiperone Binding Assay
(§3) The plates were vortexed and incubated at room temperature for 90 minutes. The binding reaction was stopped by filtering using a Packard Harvester. The samples were filtered under vacuum over glass fibre filter plates (Whatman GF/B) presoaked for 2 hours in 0.3% polyethylenimine (PEI) in 50 mM Tris buffer (pH 7.4). The filters were then washed 6 times with 7 ml ice cold 50 mM Tris buffer (pH 7.4). The filter plates were dried overnight and 35 μl of Microscint-O (Packard) was added. The plates were sealed and counted in the Packard Top Count (3 minutes per well).
Non-specific Binding Assay for D2
This assay employed the same procedures as the non-specific binding assay for D4 with the exception that 2 μM (final conc.) of (-) sulpiride (Research Chemicals Inc.) was used in place of dopamine.
(§4) Displacement Binding Assay
(§5) The incubation was started by the addition, in 96-well polypropylene plates (1 mL per well), of 100 μl (50 μg protein) membrane homogenate to a solution of 200 μl incubation buffer, 100 μl ([…].) ^3 H-spiperone (90 Ci/mmol, Amersham, diluted in borosilicate glass vial) and 100 μl of test compound that was prepared from 1 mM stock dissolved in DMSO and stored at -20° C. in polypropylene cryogenic storage vials until dilution in incubation buffer in 96-well polypropylene plates. The plates were vortexed and incubated at room temperature for 90 minutes at which time the binding reaction was stopped by filtering. The filters were washed and counted using the same procedure as in the total binding assay described above to give the displacement binding value (BD).
(§6) IC50 was determined from an inhibition response curve, logit-log plot of %B/B0 vs concentration of test compound.
(§7) Ki was calculated by the Cheng and Prustoff transformation: […]
(§8) where [L] is the concentration of ^3 H-spiperone used in the assay and KD is the dissociation constant of ^3 H-spiperone determined independently under the same binding conditions.

Assay [2] concerns the target T1, human D4 receptor (D4.2 sub-type) (Homo sapiens, UniProt P21917, DEL265-296).
T1 construct: expressed in transfected cells; host or cells: HEK 298 (human embryonic kidney) cells (so in the source); membrane homogenate
T1 sequence (P21917 with tags, fused parts or gaps DEL265-296): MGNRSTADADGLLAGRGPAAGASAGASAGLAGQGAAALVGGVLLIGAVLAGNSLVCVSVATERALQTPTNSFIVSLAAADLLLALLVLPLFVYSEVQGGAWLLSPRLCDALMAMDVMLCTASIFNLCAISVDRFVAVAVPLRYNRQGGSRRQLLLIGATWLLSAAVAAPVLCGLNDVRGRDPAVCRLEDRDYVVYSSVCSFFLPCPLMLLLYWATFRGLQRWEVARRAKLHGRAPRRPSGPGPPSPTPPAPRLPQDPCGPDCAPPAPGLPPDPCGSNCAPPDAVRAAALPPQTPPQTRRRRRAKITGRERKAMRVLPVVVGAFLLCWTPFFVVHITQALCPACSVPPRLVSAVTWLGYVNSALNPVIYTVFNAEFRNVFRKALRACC
In words: D4 receptor displacement binding assay (3H-spiperone, membrane homogenate of stably transfected HEK 298 cells). To be noted: 3H-spiperone displacement, human D4.2, HEK cells; Cheng and Prustoff transformation of IC50; read-out: D4 affinity Ki. The protocol: as §1
The cells were then centrifuged in a Sorval centrifuge for 10 min, 5000 rpm (GS3 rotor) and the pellets quickly frozen in liquid nitrogen and stored at -80° C. until used in binding assay. When used in the assay, cells were thawed on ice for 20 min and then 10 ml of incubation buffer (50 mM Tris, 1 mM EDTA, 4 mM MgCl2, 5 mM KCl, 1.5 mM CaCl2, 120 mM NaCl, pH 7.4) was added. […] Concentration of receptor protein was determined using the Pierce BCA assay.
as §2, §3
Non-specific Binding Assay for D4
The plates were vortexed and incubated at room temperature for 90 minutes at which time the binding reaction was stopped by filtering. The filters were washed and counted using the same procedure as in the total binding assay described above to give the non-specific binding value (NSB).
as §4, §5, §6, §7, §8

The target in a further assay is T2, human D4.2 receptors (Homo sapiens, UniProt P21917, DEL265-296).
T2 construct: expressed in transfected cells; host or cells: CHO Pro 5 cells
T2 sequence (P21917 with tags, fused parts or gaps DEL265-296): T1 sequence (P21917 with tags, fused parts or gaps DEL265-296)
Put plainly: Functional antagonist assay: reversal of dopamine inhibition of forskolin-stimulated adenyl cyclase (cAMP) in CHO Pro 5 cells. Format: cell-based. To be noted: dopamine and forskolin both 10 μM, read-out: % reversal of dopamine effect; for inhibition at 1 µM: 1 μM test compound; for inhibition at 10 µM: 10 μM test compound. The protocol:
The D4 receptor responds to dopamine and other agonists by reducing adenyl cyclase mediated production of cyclic AMP. Particular test compounds were assayed for their ability to reverse dopamine inhibition of adenyl cyclase by the following procedure. Forskolin was used to elevate the basal adenyl cyclase activity.
CHO Pro 5 cells stably expressing human D4.2 receptors were plated in 6 well plates in DMEM (Dulbecco's Modified Eagle Medium)/F12(Nutrient Mixture F12 (Ham)) media with 10% FCS (fetal calf serum) and G418 (Geneticen Disulfate), and incubated at 37° C. in a CO2 incubator. The cells were allowed to grow to about 70% confluence before use in the assay.
The culture media of each well was removed, and the wells were washed once with serum free media (SFM) (DMEM/F12) media. Then 2 mL of fresh SFM+IBMX media (SFM with 0.5 mM IBMX, 3-isobutyl-1-methylxanthine, 0.1% ascorbic acid and 10 μM pargyline) was added to each well and then incubated at 37° C. for 10 minutes in a CO2 incubator. […] Basal adenyl cyclase activity was determined from wells with only SFM+IBMX media added.
The cells were then incubated at 37° C. for 30 minutes in a CO2 incubator. Following incubation the media was removed from each well and then washed once with 1 mL of PBS (phosphate buffered saline). […] The cells from each well were then scraped and transferred into individual Eppendorf tubes. The tubes were centrifuged for 5 min at 4° C., and the supernatants were transferred to new Eppendorf tubes.
Total inhibition (I0) of forskolin-stimulated adenyl cyclase activity by dopamine was determined as the difference in concentration of cAMP in the forskolin-treated cells (Cf) and dopamine-forskolin treated cells (Cd).
Net inhibition (I) of forskolin-stimulated adenyl cyclase activity by dopamine in the presence of an antagonist was determined as the difference in concentration of cAMP in the forskolin-treated cells (Cf) and test compound, dopamine and forskolin treated cells (C).
The ability of the test compounds to reverse the dopamine inhibition (% reversal, % R) was determined by the formula: […]

The next assay deals with D2 receptor. To be noted: background, marketed products; cited from earlier work.
The next assay deals with D4 receptor. To be noted: background, marketed products; cited from earlier work.

Chain of human D2 receptor (short isoform) (P14416 with tags, fused parts or gaps DEL242-270): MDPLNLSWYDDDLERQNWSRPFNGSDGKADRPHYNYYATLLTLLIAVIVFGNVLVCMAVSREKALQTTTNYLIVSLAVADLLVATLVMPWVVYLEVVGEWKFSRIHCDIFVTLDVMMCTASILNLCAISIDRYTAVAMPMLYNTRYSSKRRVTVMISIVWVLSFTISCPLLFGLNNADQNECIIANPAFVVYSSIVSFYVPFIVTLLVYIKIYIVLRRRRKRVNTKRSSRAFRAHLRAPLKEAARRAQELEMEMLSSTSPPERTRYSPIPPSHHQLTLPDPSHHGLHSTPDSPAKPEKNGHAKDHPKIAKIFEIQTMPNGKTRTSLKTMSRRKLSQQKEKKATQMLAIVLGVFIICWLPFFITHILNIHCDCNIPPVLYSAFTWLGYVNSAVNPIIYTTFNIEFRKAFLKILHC

With `O=c1cccccc1N1CCN(Cc2ccc3ccccc3c2)CC1`, the D2/D4 selectivity in assay [1] is 321. Moreover, in assay [2], the Ki was 2.24 nM.
The like results for `O=c1c(-c2cccs2)ccccc1N1CCN(Cc2ccc3c(c2)OCO3)CC1` [2-(4-Piperonyl-1-piperazinyl)7-thien2-yl-2,4,6-cycloheptatriene-1-one] were, in that order, 34 and 11.9 nM.
Turning to `O=c1cccccc1N1CCN(Cc2ccc3c(c2)OCO3)CC1` [2-(4-Piperonyl-1-piperazinyl)-2,4,6-cycloheptatriene-1-one], the D2/D4 selectivity in assay [1] turned out to be 154. Moreover, on human D4.2 receptors, the inhibition at 1 µM was found to be 32% and the inhibition at 10 µM amounted to 65%. Also, in assay [2], the Ki turned out to be 7.15 nM.
On to `CCCCCCN1CCN(c2cccccc2=O)CC1` [2-(4-hexyl-1-piperazinyl)-2,4,6-cycloheptatriene-1-one], for which, in assay [1], the D2/D4 selectivity amounted to 23. Moreover, at human D4.2 receptors, the inhibition at 1 µM came to 45% and the inhibition at 10 µM turned out to be 50%. The Ki in assay [2] is 33.3 nM.
In the case of `COc1cccc(CN2CCN(c3cccccc3=O)CC2)c1` [2-[4-(3-Methoxybenzyl)-1-piperazinyl]-2,4,6-cycloheptatriene-1-one], the D2/D4 selectivity in assay [1] is recorded as 137. Besides, the Ki in assay [2] worked out at 19.2 nM.
As for `O=c1cccccc1N1CCN(Cc2cccc(Br)c2)CC1` [2-[4-(3-bromobenzyl)-1-piperazinyl]-2,4,6-cycloheptatriene-1-one], the D2/D4 selectivity in assay [1] is given as 53. Further, the Ki in assay [2] came to 9.58 nM.
Turning to `O=c1cccccc1N1CCN(Cc2cccc(C(F)(F)F)c2)CC1` [2-[4-(3-trifluoromethylbenzyl)-1-piperazinyl]-2,4,6-cycloheptatriene-1-one], the D2/D4 selectivity in assay [1] was found to be 28. Also, the Ki in assay [2] is 21.5 nM.
The like results for `O=c1cccccc1N1CCN(Cc2ccc(Br)cc2)CC1` [2-[4-(4-bromobenzyl)-1-piperazinyl]-2,4,6-cycloheptatriene-1-one] were, in that order, 935 and 0.82 nM.
As for `N#Cc1ccc(CN2CCN(c3cccccc3=O)CC2)cc1` [2-[4-(4-cyanobenzyl)-1-piperazinyl]-2,4,6-cycloheptatriene-1-one], the D2/D4 selectivity in assay [1] worked out at 169. For the same compound, the Ki in assay [2] is 29.5 nM.
`Cc1ccc(CN2CCN(c3cccccc3=O)CC2)cc1` [2-[4-(4-methylbenzyl)-1-piperazinyl]-2,4,6-cycloheptatriene-1-one]: in assay [1], the D2/D4 selectivity was 443. In addition, the Ki in assay [2] is 1.46 nM.
On to `O=c1cccccc1N1CCN(Cc2ccc([N+](=O)[O-])cc2)CC1` [2-[4-(4-nitrobenzyl)-1-piperazinyl]-2,4,6-cycloheptatriene-1-one], for which the D2/D4 selectivity in assay [1] amounted to 1014. Further, the Ki in assay [2] was determined as 6.67 nM.
Consider `O=c1cccccc1N1CCN(Cc2ccc(OC(F)(F)F)cc2)CC1` [2-[4-(4-trifluoromethoxybenzyl)-1-piperazinyl]-2,4,6-cycloheptatriene-1-one], for which the D2/D4 selectivity in assay [1] is on record as 367. Besides, the inhibition constant Ki in assay [2] stood at 2.18 nM.
In the case of `O=c1cccccc1N1CCN(Cc2ccc(C(F)(F)F)cc2)CC1` [2-[4-(4-trifluoromethylbenzyl)-1-piperazinyl]-2,4,6-cycloheptatriene-1-one], the D2/D4 selectivity in assay [1] is listed as 598. For the same compound, the inhibitory constant (Ki) in assay [2] was 4.22 nM.
The matching figures for `O=c1c(Br)ccccc1N1CCN(Cc2ccc3c(c2)OCO3)CC1` [7-bromo-2-(4-piperonyl-1-piperazinyl)-2,4,6-cycloheptatriene-1-one]: 104 and 0.226 nM.
With `CN1CCN(C2=Nc3cc(Cl)ccc3Oc3ccccc32)CC1` [isoloxapine], the “preference for binding the D4 receptor relative to the D2 receptor” value in the assay on D2 receptor was “about 10 fold”. Further, the Ki on D4 receptor is approximately 20 nM.

Source of the values: patent publication US5998414A, “Troponyl piperazines as dopamine D4 receptor ligands” (priority 1997, dated 1999).
